Data published in patent US5576305A, “Intercellular adhesion mediators” (Cytel Corporation, priority 1995, dated 1996).

Tests used:
rolling leukocytes = test: leukocyte rolling (histamine-induced recruitment of rolling leukocytes); format: in vivo, rat; conditions: FIG. 15, in words
recombinant E-selectin = test: inhibition of binding of HL-60 cells to recombinant E-selectin; format: cell-based; conditions: FIG. 13, concentration dependence, in words
selectin = test: inhibitory effect of oligosaccharides on selectin-mediated adhesion; format: cell-based; conditions: in words

| Compound | recruitment of rolling leukocytes / leukocyte rolling (rolling leukocytes) | inhibition of binding of HL-60 cells to recombinant E-selectin (recombinant E-selectin) | inhibitory effect relative to the tetrasaccharide (selectin) |
| --- | --- | --- | --- |
| CCO[C@@H]1O[C@H](CO)[C@H](O)[C@H](O[C@@H]2O[C@H](CO)[C@@H](O[C@@H]3O[C@H](CO)[C@H](O)[C@H](O[C@]4(C(=O)O)C[C@H](O)[C@@H](NC(C)=O)[C@H]([C@H](O)[C@H](O)CO)O4)[C@H]3O)[C@H](O)[C@H]2NC(C)=O)[C@H]1O [SLN, reference compound] | had no effect |  |  |
| CCOC1OC(CO)C(O)C(OC2OC(CO)C(OC3OC(CO)C(O)C(OC4(C(=O)O)CC(O)C(NC(C)=O)C(C(O)C(O)CO)O4)C3O)C(OC3OC(C)C(O)C(O)C3O)C2NC(C)=O)C1O [Z, Ethyl (sodium (5-acetamido-3,5-dideoxy-α-D-glycero-D-galacto-2-nonulopyanosylonate))-(2-3)-O-(β-D-galactopyranosyl)-(1-4)-O-((α-L-fucopyranosyl)-(1-3))-O-(2-acetamido-2-deoxy-β-D-glucopyranosyl)-(1-3)-O-β-D-galactopyranoside] | inhibited leukocyte rolling | inhibition of binding of HL-60 cells to recombinant E-selectin in a concentration dependent manner |  |
| NeuAcα2,3Galβ1,4(Fucα1,3)GlcNAcβ1,3Galβ-- |  |  | substantially more inhibitory effect than the tetrasaccharide |
